According to patent US20140045809A1, “CORROLES FOR NEUROPROTECTION AND NEURORESCUE” (priority 2008, published 2014):
Entries after “also recorded” stand apart in the source; their conditions may differ.

Experiments:
[1] = Peroxynitrite decomposition rates by manganese corroles (Example 2); type: biochemical; conditions: 385 μM peroxynitrite, pH 7.4, 25° C., absorbance at 302 nm; Table 2
Experimental: The investigations were performed by examining the decay of 385 μM peroxynitrite at pH 7.4 and 25° C. in the presence and absence of various amounts of Mn corrole catalysts 2C-Mn, 2C′-Mn, 2C″-Mn, 3C-Mn and 4C-Mn. The differences between 2C-Mn, 2C′-Mn, and 2C″-Mn is in the identity of the 10-aryl group, which is C6F5, para-anisyl, and phenyl, respectively. The results (one example using 4C-Mn is shown in FIG. 1) were obtained by monitoring changes in absorbance at 302 nm, the λmax of peroxynitrite. The catalytic performances of five of the above compounds were tested; and the thus elucidated kcat values are presented in Table 2. Importantly, in sharp contrast with the corroles, none of the structurally similar manganese (III) porphyrin complexes affected the decomposition of peroxynitrite by any extent (not shown).

[2] = SOD activity (catalytic decomposition of superoxide anion radical), cytochrome C assay; type: biochemical
Experimental: (§1) SOD activity (enzyme-like catalytic decomposition of superoxide anion radical) of the corroles 1C-Fe, 6C-Fe, 1C-Mn, 1C-Cu, 2C-Mn and 3C-Mn was examined via the cytochrome C assay. The catalytic rate constants for decomposition of peroxynitrite (PN) by the newly prepared iron corrole 6C-Fe and manganese corrole 3C-Mn were determined via stopped-flow kinetics as previously described for corroles 1C-Fe, 1C-Mn, and 2C-Mn (Mahammed and Gross, 2006; Gershman et al., 2007). These tests are performed in order to estimate how electronic and structural variables affect reactivity, which is a crucial factor for design of new complexes.

[3] = Rescuing DMSO from damage attributed to the hydroxyl radical (Fenton reaction); type: biochemical; conditions: for Yield (%) or amount of product (Formaldehyde): substrate DMSO
Description: Corrole complexes were examined with respect to their efficiency of rescuing DMSO from damage attributed to the hydroxyl radical, formed via the Fenton reaction that also involves superoxide anion radical and hydrogen […]. It also mimics reaction occurring in biological systems that are exposed to metal toxicity, the situation that occurs in diseases caused by brain iron accumulation.

[4] = test system: RIN-m cells; assay: Protection of RIN-m beta cells against H2O2 toxicity (MTT); type: cell-based, rat; conditions: H2O2 150 μM
Experimental: Two insulin-secreting beta cell lines, rat insulinoma (INS-1E) and RIN-m cells, were used to examine the protective effect of corrole 1C-Fe. The cells were cultured at 37° C., in a humid 5% CO2, 95% air environment in regular RPMI-1640 medium (Invitrogen) supplemented with 5% fetal calf serum (FCS).
After 2 days of culture, RIN-m cells (5×10^4 cells/well in 96-well plates) were treated with corrole 1C-Fe (1-50 μM) before addition of 35 μM of H2O2. Cell viability was evaluated by a colorimetric assay for mitochondrial function estimation using the MTT test as previously described (Gassen et al., 1998) and expressed as percentage of control.
RIN-m cells were grown as described in Example 5. After 3 days of culture, RIN-m cells (2.5×10^4 cells/well in 96-well plates) were treated with corroles 1C-Fe or 5C-Fe or porphyrin 1P-Fe (1 and 20 μM), added 30 min prior to treatment with 35 μM H2O2 and further incubated for 24 h. Cell injury was evaluated by MTT test. […] […].
Protective effect of iron(III) corrole complexes against H2O2-induced toxicity (150 μM) was compared to that of manganese(III) corroles and related porphyrin. […].

[5] = test system: RIN-m cells; assay: Protection of RIN-m cells against SIN-1 toxicity (MTT); type: cell-based, rat; conditions: 0.1-20 μM, 30 min before SIN-1 (800 μM), 24 h
Experimental: INS-1E cells or RIN-m cells were cultured in RPMI with low serum content (2% FCS), placed in microtiter plates (96 wells) at a density of 2.5×10^4 cells/well and allowed to attach for 24 h before treatment. Corroles 1C-Fe and 5C-Fe (10 μM) were added 30 min prior to insult with the nitric oxide donor SIN-1 (500 or 600 μM) for a subsequent 24 h period. Cell viability was evaluated by a colorimetric assay for mitochondrial function using 3-(4,5-dimethylthiazol-2-yl)-2,5-diphenyltetrazolium bromide (MTT test), and expressed as percentage of untreated control. Values higher than 100% reflect increased mitochondrial activity induced by the drug. The results represent the mean±SEM of three independent experiments performed under the same conditions.
Insulin-secreting RIN-m cells were incubated in RPMI with low serum content (2% FCS) and placed in microtiter plates (96 wells) at a density of 2.5×10^4 cells/well and allowed to attach for 24 h before treatment. Cells were treated with corroles 1C-Fe, 1C-Mn or 2C-Mn or porphyrins 1P-Fe or 2P-Mn, in various concentrations (0.1-20 μM), for 30 min prior to insult with SIN-1 (800 μM) for a subsequent 24 h period. Cell viability was evaluated by MTT test and expressed as percentage of untreated control.

[6] = Catalytic decomposition of peroxynitrite (PN), stopped-flow kinetics (Table 1); type: biochemical
Experimental: as §1

[7] = test system: SH-SY5Y cells; type: cell-based; conditions: up to 50 μM; data not shown
[8] = test system: nitrotyrosine (Ntyr); assay: SIN-1-induced cellular protein nitration, nitrotyrosine immunofluorescence in SH-SY5Y cells; type: cell-based, human; conditions: 20 μM corrole, SIN-1 700 μM, 24 h
Experimental: To determine the effect of the corroles on SIN-1-induced cellular protein nitration, SH-SY5Y neuroblastoma cells were treated with SIN-1 (700 μM) in the absence or presence of 20 μM of the corroles 1C-Fe, 2C-Mn, and 3C-Mn. Protein nitration was detected by immunofluorescence analysis using a monoclonal antibody against nitrotyrosine (Ntyr), a biological marker of peroxynitrite.

[9] = test system: SH-SY5Y cells; assay: Neuroprotection/neurorescue against SIN-1-induced cell death in SH-SY5Y cells; type: cell-based, human
Experimental: SH-SY5Y cells were cultured in DMEM-Eagle/F-12(HAM) (1:1) containing 10% FCS. Cells were resuspended in medium containing 2% FCS, seeded in microtiter plates (96 wells) and allowed to attach for 24 h before initiation of treatment. […]

[10] = test system: cleaved caspase-3; assay: Cleaved caspase-3 level in 6-OHDA-treated SH-SY5Y cells, immunofluorescence; type: cell-based, human; conditions: 20 μM, 30 min before 6-OHDA (40 μM), 24 h
Experimental: (§2) SH-SY5Y cells were pretreated with or without corroles 1C-Fe, 2C-Mn and 3C-Mn and porphyrins 1P-Fe and 2P-Mn (20 μM), 30 min before exposure to 6-OHDA (40 μM) for a subsequent 24 h period. Cell viability was evaluated by MTT test and cell death was assessed using the apoptotic cell death detection ELISA kit. For neurorescue, SH-SY5Y cells were first exposed to 40 μM 6-OHDA for 0.5. 1, 1.5 and 3 h, followed by the addition of the compounds 1C-Fe, 2C-Mn and 3C-Mn (20 μM) and incubated for further 24 h. Growth-associated protein (GAP-43) was detected by fluorescence microscopy using a specific primary antibody. Apoptotic nuclei were determined by terminal deoxynucleotidyl transferase-mediated UTP-digoxigenin nick end labeling analysis. 4′,6-Diamidino-2-phenylnidole (DAPI) staining was applied for nuclear labeling. […]
Since 6-OHDA is also known to induce apoptosis in various cell types, including SH-SY5Y (von Coelln et al. 2001; Nie et al. 2002; Shimizu et al. 2002; Jordan et al. 2004), we further tested effect of corroles on the levels of the apoptotic marker, cleaved caspase-3, a major executer of the mitochondrial intrinsic pathway of apoptosis.

[11] = test system: SH-SY5Y cells; type: cell-based; conditions: 20 μM
Experimental: SH-SY5Y cells were cultured in DMEM-Eagle/F-12(HAM) (1:1) containing 10% FCS. Cells were resuspended in medium containing 2% FCS, seeded in microtiter plates (96 wells) and allowed to attach for 24 h. To examine the neuroprotective effect, cells were pretreated for 30 min with corroles 1C-Fe and 5C-Fe (1-20 μM), and were then exposed to 6-OHDA (60 μM) for further 24 h. For neurorescue assessment, SH-SY5Y cells were first treated with 6-OHDA (60 μM) for 0.5 h, 1.5 h, 3 h and 6 h followed by the addition of compounds 1C-Fe and 5C-Fe (10 μM) for further 24 h.
as §2

[12] = CuSO4/ascorbate, no additive 44 μM
[13] = CuSO4/glutathione, no additive 11 μM
[14] = 30 min before 6-OHDA (40 μM), 24 h

In the case of `COc1ccc(C2=c3ccc4[n]3[Mn-]35[n]6c(ccc6-c6ccc([n]63)C=4c3cc[n+](C)cc3)C(c3cc[n+](C)cc3)=C3C=CC2=[N+]35)cc1` (centres unmarked) [2C′-Mn], the “kcat, peroxynitrite decomposition rate” value [1] is reported as 77000 M⁻¹ s⁻¹.
For `C[n+]1ccc(C2=C3C=CC4=[N+]3[Mn-]35[n]6c2ccc6-c2ccc([n]23)C(c2cc[n+](C)cc2)=c2ccc([n]25)=C4c2ccccc2)cc1` (centres unmarked) [2C″-Mn], the “kcat, peroxynitrite decomposition rate” value [1] was 81000 M⁻¹ s⁻¹.
Work on `COc1c(F)c(F)c(C2=C3C=CC4=[N+]3[Fe-]35[n]6c(cc(S(=O)(=O)O)c62)-c2c(S(=O)(=O)O)cc([n]23)C(c2c(F)c(F)c(OC)c(F)c2F)=c2ccc([n]25)=C4c2c(F)c(F)c(OC)c(F)c2F)c(F)c1F` (centres unmarked) [6C-Fe, 2,17-bis-sulfonato-5,10,15-tris(p-methoxy-tetra-fluorophenyl)iron(III) corrole] yielded an IC50 [2] of 1.18 µM.
For `O=S(=O)(O)c1cc2[n]3c1C(c1c(F)c(F)c(F)c(F)c1F)=C1C=CC4=[N+]1[Mn-]31[n]3c(cc(S(=O)(=O)O)c3-2)C(c2c(F)c(F)c(F)c(F)c2F)=c2ccc([n]21)=C4c1c(F)c(F)c(F)c(F)c1F` (centres unmarked) [1C-Mn, 2,17-bis(sulfonato)-5,10,15-tris(pentafluorophenyl)-corrolato manganese(III)], the “Yield (%) or amount of product (Formaldehyde)” value (“Yield (%) or amount of product” for short) [3, 12] was 20 µM, the “Yield (%) or amount of product” value [3, 13] was 7 µM and the “cytoprotective effect against H2O2-induced toxicity” value [4] was “totally inefficient; also recorded: inefficiency”. The IC50 [2] was 5.9 µM, the “protective effect against SIN-1 induced toxicity (MTT), comparative” value [5] was “ineffective” and the “kcat, catalytic rate constant for decomposition of PN” value [6] was 40000 M⁻¹ s⁻¹.
With `C[n+]1ccc(C2=C3C=CC4=[N+]3[Mn-]35[n]6c2ccc6C(c2c(F)c(F)c(F)c(F)c2F)=C2C=CC(=[N+]23)C(c2cc[n+](C)cc2)=c2ccc([n]25)=C4c2c(F)c(F)c(F)c(F)c2F)cc1.[I-].[I-]` (centres unmarked) [2P-Mn, 5,15-bis(N-methyl-4-pyridilium)-10,20-bis-(pentafluoro-phenyl)porphyrinato manganese(III) diiodide salt, reference compound] the “cytoprotective effect against H2O2-induced toxicity” value [4] was “totally inefficient; also recorded: inefficiency”.
In the case of `C[n+]1ccccc1C1=C2C=CC3=[N+]2[Mn-]24[n]5c1ccc5-c1ccc([n]12)C(c1cccc[n+]1C)=c1ccc([n]14)=C3c1c(F)c(F)c(F)c(F)c1F` (centres unmarked) [4C-Mn, 5,15-bis(N-methyl-2-pyridilium) 10-pentafluorophenyl corrolato manganese(III)], the “kcat, peroxynitrite decomposition rate” value [1] is reported as 160000 M⁻¹ s⁻¹.
With `C[n+]1ccccc1C1=C2C=CC3=[N+]2[Mn-]24[n]5c1ccc5-c1ccc([n]12)C(c1cccc[n+]1C)=c1ccc([n]14)=C3c1cccc[n+]1C` (centres unmarked) [3C-Mn, 5,10,15-tris(N-methyl-2-pyridilium)corrolato manganese(III)] the “preventing H2O2-mediated cytotoxicity” value [7] was “not effective”, the “Yield (%) or amount of product” value [3, 12] was 0 µM and the “Yield (%) or amount of product” value [3, 13] was 0 µM. The “preventing oxidative damage / protection against metal-induced oxidation of substrates” value ([3]; summary of Table 3) was “protect better than corrole 1C-Mn”, the “kcat, peroxynitrite decomposition rate” value [1] was 25000 M⁻¹ s⁻¹ and the “nitrotyrosine (Ntyr) staining, SIN-1-induced” value [8] was “totally abolished”. For the same compound, the IC50 [2] was 3.27 µM, the “cytoprotection against different SIN-1 concentrations” value ([9]; 25 μM corrole, FIG. 12C) was “protect cells against different SIN-1 concentrations” and the “protection against SIN-1 (MTT reduction analysis and ELISA assay)” value ([9]; 30 min before SIN-1, 24 h (Example 12)) was “protect, in a dose-dependent manner; also recorded: more effective not only than 2C-Mn”. The “6-OHDA-induced increase of cleaved caspase-3” value [10] was “totally”, the “kcat, catalytic rate constant for decomposition of PN” value [6] was 25000 M⁻¹ s⁻¹ and the “protection against 6-OHDA compared with porphyrins 1P-Fe and 2P-Mn” value ([11]; 6-OHDA 40 μM, immunofluorescence) was “remarkable superiority over the porphyrins”. For the same compound, the “6-OHDA-induced cytotoxicity (MTT, cell death ELISA)” value [11, 14] was “significantly attenuated 6-OHDA-induced cytotoxicity” and the “cell mortality, morphology and apoptotic nuclei (GAP-43 immunofluorescence, TUNEL, DAPI)” value [11, 14] was “significantly attenuated 6-OHDA-induced cell mortality, improved cell morphology and reduced the number of apoptotic nuclei”.
`O=S(=O)(O)c1cc2[n]3c1C(c1c(F)c(F)c(F)c(F)c1F)=C1C=CC4=[N+]1[Cu-]31[n]3c(cc(S(=O)(=O)O)c3-2)C(c2c(F)c(F)c(F)c(F)c2F)=c2ccc([n]21)=C4c1c(F)c(F)c(F)c(F)c1F` (centres unmarked) [1C-Cu, 2,17-bis(sulfonato)-5,10,15-tris(pentafluorophenyl)-corrolato copper(III)] showed an IC50 [2] of 12 µM.
